Patent US20240190892A1, “PLASMA KALLIKREIN INHIBITORS” (Merck Sharp & Dohme LLC, priority 2021, published 2024)

Tests used:
Human plasma kallikrein = Human plasma kallikrein (Homo sapiens (Human), UniProt P03952); test: Plasma Kallikrein Assay; assay type: biochemical; conditions: purified Human plasma kallikrein 0.5 nM, substrate Acetyl-K-P-R-AFC, pH 7.4; read-out: PKal IC50
Procedure: (§1) The effectiveness of a compound of the present invention as an inhibitor of plasma kallikrein can be determined using a relevant purified serine protease, and an appropriate synthetic substrate. The rate of hydrolysis of the chromogenic or fluorogenic substrate by the relevant serine protease was measured both in the absence and presence of compounds of the present invention. Assays were conducted at rt or at 37° C. […] A decrease in the rate of fluorescence change in the presence of inhibitor is indicative of enzyme inhibition. Such methods are known to one skilled in the art. The results of this assay are expressed as the half-maximal inhibitory concentrations (IC50), or the inhibitory constant, Ki.
Plasma kallikrein determinations were made in 50 mM HEPES buffer at pH 7.4 containing 150 mM NaCl, 5 mM CaCl2, and 0.1% PEG 8000 (polyethylene glycol; Fisher Scientific). Determinations were made using purified Human plasma kallikrein at a final concentration of 0.5 nM (Enzyme Research Laboratories) and the synthetic substrate, Acetyl-K-P-R-AFC (Sigma #C6608) at a concentration of […].
Activity assays were performed by diluting a stock solution of substrate at least tenfold to a final concentration ≤0.2 Km into a solution containing enzyme or enzyme equilibrated with inhibitor. Times required to achieve equilibration between enzyme and inhibitor were determined in control experiments. The reactions were performed under linear progress curve conditions and fluorescence increase measured at 405 Ex/510 Em nm. Values were converted to percent inhibition of the control reaction (after subtracting 100% Inhibition value). IC50 was determined by inflection point from a four parameter logistic curve fit. Ki was calculated using the Cheng Prusoff equation, Ki=IC50/(1+[S]/Km)).

Coagulation factor XIa = Coagulation factor XIa (Homo sapiens (Human), UniProt P03951); test: Factor XIa Assay; assay type: biochemical; conditions: human factor XIa 0.04 nM, substrate GPR-AFC, 30 min pre-incubation at 25° C., pH 7.4; read-out: FXIa IC50
Procedure: as §1, with “Coagulation factor XIa” for “plasma kallikrein”
Compounds were pre-incubated for 30 min at 25° C. with human (0.04 nM) factor XIa in 50 mM HEPES buffer with 150 mM sodium chloride, 5 mM calcium chloride, 0.1% PEG 8000, pH 7.4. factor XIa enzymatic activity was determined by addition of the substrate glycine-proline-arginine-7-amido-4-trifluoromethylcoumarin (GPR-AFC) and measurement of the fluorescence at 400/505 nm after a 60 min incubation at 25° C. The % inhibition for each data point was calculated from the data and analyzed using the log (inhibitor) vs. response four parameters equation to determine the half-maximal inhibitory concentrations (IC50). The IC50 were converted to equilibrium inhibitory constants (Ki) using the Cheng-Prusoff equation.

Chain of Human plasma kallikrein (P03952 391-638 limits assumed): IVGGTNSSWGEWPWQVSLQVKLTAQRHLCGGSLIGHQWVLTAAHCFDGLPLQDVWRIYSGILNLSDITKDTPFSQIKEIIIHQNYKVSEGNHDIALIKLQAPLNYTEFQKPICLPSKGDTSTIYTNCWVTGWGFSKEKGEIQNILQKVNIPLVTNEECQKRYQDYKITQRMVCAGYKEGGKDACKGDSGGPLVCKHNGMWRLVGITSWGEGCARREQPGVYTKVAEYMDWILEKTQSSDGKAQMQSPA
Chain of Human plasma kallikrein (P03952 20-390 partner limits assumed): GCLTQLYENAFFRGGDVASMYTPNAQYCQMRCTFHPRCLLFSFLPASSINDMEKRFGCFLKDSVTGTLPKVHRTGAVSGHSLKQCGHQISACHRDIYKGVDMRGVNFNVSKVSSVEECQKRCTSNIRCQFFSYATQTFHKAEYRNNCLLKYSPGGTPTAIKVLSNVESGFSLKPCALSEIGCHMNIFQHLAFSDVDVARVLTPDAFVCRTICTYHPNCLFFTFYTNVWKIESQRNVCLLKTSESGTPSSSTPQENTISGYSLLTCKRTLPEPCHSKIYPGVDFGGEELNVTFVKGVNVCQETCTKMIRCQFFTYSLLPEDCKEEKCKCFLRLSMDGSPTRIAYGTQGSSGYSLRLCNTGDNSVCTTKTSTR
Chain of Coagulation factor XIa (P03951 388-625 limits assumed): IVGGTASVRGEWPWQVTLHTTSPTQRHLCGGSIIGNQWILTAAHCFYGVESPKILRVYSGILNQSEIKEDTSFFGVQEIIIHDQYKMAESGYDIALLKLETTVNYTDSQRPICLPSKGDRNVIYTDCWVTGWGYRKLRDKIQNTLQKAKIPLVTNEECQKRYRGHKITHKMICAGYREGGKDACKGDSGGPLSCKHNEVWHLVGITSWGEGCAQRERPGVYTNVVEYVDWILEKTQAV
Chain of Coagulation factor XIa (P03951 19-387 partner limits assumed): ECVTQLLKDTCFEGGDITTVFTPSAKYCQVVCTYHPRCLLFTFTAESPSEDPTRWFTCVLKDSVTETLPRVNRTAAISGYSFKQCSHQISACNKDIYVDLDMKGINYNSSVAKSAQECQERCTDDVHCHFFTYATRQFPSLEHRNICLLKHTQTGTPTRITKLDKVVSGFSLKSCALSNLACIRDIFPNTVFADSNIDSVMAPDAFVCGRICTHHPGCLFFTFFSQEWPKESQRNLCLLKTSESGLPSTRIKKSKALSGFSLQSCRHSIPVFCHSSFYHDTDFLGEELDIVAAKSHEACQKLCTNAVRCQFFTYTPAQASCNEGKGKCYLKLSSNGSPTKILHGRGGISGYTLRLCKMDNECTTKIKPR

SMILES | IC50 (Human plasma kallikrein) [µM] | IC50 (Coagulation factor XIa) [µM]
O=C1Nc2ccc(Cl)c(F)c2[C@]2(CCN(c3cc(C(=O)NCc4ccc(N5CCC(F)(F)C5)c(F)c4)cnn3)C2)O1 [Example 7, (S)-6-(6-Chloro-5-fluoro-2-oxo-1,2-dihydrospiro[benzo[d][1,3]oxazine-4,3′-pyrrolidin]-1′-yl)-N-(4-(3,3-difluoropyrrolidin-1-yl)-3-fluorobenzyl)pyridazine-4-carboxamide] | 0.0335 | 10
CN1CC(F)(F)CC1c1ccc(CNC(=O)c2cnnc(N3CC[C@]4(C3)OC(=O)Nc3ccc(Cl)c(F)c34)c2)cn1 (stereo in doubt) [Example 13, (S)-6-(6-Chloro-5-fluoro-2-oxo-1,2-dihydrospiro[benzo[d][1,3]oxazine-4,3′-pyrrolidin]-1′-yl)-N-((6-(4,4-difluoro-1-methylpyrrolidin-2-yl)pyridin-3-yl)methyl)pyridazine-4-carboxamide] | 0.0816 | 10
Cc1cnn(Cc2ccc(CNC(=O)c3cc(N4CC[C@]5(C4)OC(=O)Nc4ccc(Cl)c(F)c45)ncn3)cc2)c1 [Example 19, (S)-6-(6-Chloro-5-fluoro-2-oxo-1,2-dihydrospiro[benzo[d][1,3]oxazine-4,3′-pyrrolidin]-1′-yl)-N-(4-((4-methyl-1H-pyrazol-1-yl)methyl)benzyl)pyrimidine-4-carboxamide] | 0.0256 | 10
O=C1Nc2ccc(Cl)c(F)c2[C@]2(CCN(c3cncc(C(=O)NCc4ccc(Cn5ccccc5=O)nc4)n3)C2)O1 [Example 14, (S)-6-(6-Chloro-5-fluoro-2-oxo-1,2-dihydrospiro[benzo[d][1,3]oxazine-4,3′-pyrrolidin]-1′-yl)-N-((6-((2-oxopyridin-1(2H)-yl)methyl)pyridin-3-yl)methyl)pyrazine-2-carboxamide] | 0.0016 | 10
Cc1cnn(Cc2ccc(CNC(=O)c3cncc(N4CC[C@]5(C4)OC(=O)Nc4ccc(Cl)c(F)c45)n3)cc2)c1 [Example 18, (S)-6-(6-Chloro-5-fluoro-2-oxo-1,2-dihydrospiro[benzo[d][1,3]oxazine-4,3′-pyrrolidin]-1′-yl)-N-(4-((4-methyl-1H-pyrazol-1-yl)methyl)benzyl)pyrazine-2-carboxamide] | 0.0128 | 10
CCC(C)NCc1ccc(CNC(=O)c2cnnc(N3CC[C@]4(C3)OC(=O)Nc3ccc(Cl)c(F)c34)c2)cc1 (stereo partly drawn) [Example 45, N-(4-((sec-Butylamino)methyl)benzyl)-6-((S)-6-chloro-5-fluoro-2-oxo-1,2-dihydrospiro[benzo[d][1,3]oxazine-4,3′-pyrrolidin]-1′-yl)pyridazine-4-carboxamide] | 0.0158 | 10
O=C1Nc2ccc(Cl)c(F)c2[C@]2(CCN(c3cc(C(=O)NCc4ccc(N5CCC(F)(F)C5)nc4)cnn3)C2)O1 [Example 6, (S)-6-(6-Chloro-5-fluoro-2-oxo-1,2-dihydrospiro[benzo[d][1,3]oxazine-4,3′-pyrrolidin]-1′-yl)-N-((6-(3,3-difluoropyrrolidin-1-yl)pyridin-3-yl)methyl)pyridazine-4-carboxamide] | 0.004 | 10
COCC1CN(c2ccc(CNC(=O)c3cncc(N4CC[C@]5(C4)OC(=O)Nc4ccc(Cl)c(F)c45)n3)cn2)C1 [Example 34, (S)-6-(6-Chloro-5-fluoro-2-oxo-1,2-dihydrospiro[benzo[d][1,3]oxazine-4,3′-pyrrolidin]-1′-yl)-N-((6-(3-(methoxymethyl)azetidin-1-yl)pyridin-3-yl)methyl)pyrazine-2-carboxamide] | 0.0054 | 10
CN1CC(F)(F)C[C@H]1c1ccc(CNC(=O)c2cnnc(N3CCC4(C3)OC(=O)Nc3ccc(Cl)c(F)c34)c2)cc1 (stereo partly drawn) [Example 12, (S)-6-(6-Chloro-5-fluoro-2-oxo-1,2-dihydrospiro[benzo[d][1,3]oxazine-4,3′-pyrrolidin]-1′-yl)-N-(4-(4,4-difluoro-1-methylpyrrolidin-2-yl)benzyl)pyridazine-4-carboxamide] | 0.0396 | 10
CN1CCN(c2ccc(CNC(=O)c3cncc(N4CC[C@]5(C4)OC(=O)Nc4ccc(Cl)c(F)c45)n3)cn2)CC1 [Example 43, (S)-6-(6-Chloro-5-fluoro-2-oxo-1,2-dihydrospiro[benzo[d][1,3]oxazine-4,3′-pyrrolidin]-1′-yl)-N-((6-(4-methylpiperazin-1-yl)pyridin-3-yl)methyl)pyrazine-2-carboxamide] | 0.0017 | 10
O=C1Nc2ccc(Cl)c(F)c2[C@]2(CCN(c3cncc(C(=O)NCc4ccc(N5CCCCC5)nc4)n3)C2)O1 [Example 41, (S)-6-(6-Chloro-5-fluoro-2-oxo-1,2-dihydrospiro[benzo[d][1,3]oxazine-4,3′-pyrrolidin]-1′-yl)-N-((6-(piperidin-1-yl)pyridin-3-yl)methyl)pyrazine-2-carboxamide] | 0.0354 | 10
N#CC1(F)CN(Cc2ccc(CNC(=O)c3cnnc(N4CC[C@]5(C4)OC(=O)Nc4ccc(Cl)c(F)c45)c3)cc2)C1 [Example 50, (S)-6-(6-Chloro-5-fluoro-2-oxo-1,2-dihydrospiro[benzo[d][1,3]oxazine-4,3′-pyrrolidin]-1′-yl)-N-(4-((3-cyano-3-fluoroazetidin-1-yl)methyl)benzyl)pyridazine-4-carboxamide] | 0.0266 | 10
N#CCCN(Cc1ccc(CNC(=O)c2cnnc(N3CC[C@]4(C3)OC(=O)Nc3ccc(Cl)c(F)c34)c2)cc1)C1CC1 [Example 49, (S)-6-(6-Chloro-5-fluoro-2-oxo-1,2-dihydrospiro[benzo[d][1,3]oxazine-4,3′-pyrrolidin]-1′-yl)-N-(4-(((2-cyanoethyl)(cyclopropyl)amino)methyl)benzyl)pyridazine-4-carboxamide] | 0.0089 | 10
O=C1Nc2ccc(Cl)c(F)c2[C@]2(CCN(c3cncc(C(=O)NCc4ccc(N5CC6CC6C5)nc4)n3)C2)O1 (stereo partly drawn) [Example 40, N-((6-(3-Azabicyclo[3.1.0]hexan-3-yl)pyridin-3-yl)methyl)-6-((S)-6-chloro-5-fluoro-2-oxo-1,2-dihydrospiro[benzo[d][1,3]oxazine-4,3′-pyrrolidin]-1′-yl)pyrazine-2-carboxamide] | 0.0186 | 10
O=C1Nc2ccc(Cl)c(F)c2[C@]2(CCN(c3cncc(C(=O)NCc4ccc(N5CC(O)(C(F)(F)F)C5)nc4)n3)C2)O1 [Example 36, (S)-6-(6-Chloro-5-fluoro-2-oxo-1,2-dihydrospiro[benzo[d][1,3]oxazine-4,3′-pyrrolidin]-1′-yl)-N-((6-(3-hydroxy-3-(trifluoromethyl)azetidin-1-yl)pyridin-3-yl)methyl)pyrazine-2-carboxamide] | 0.0437 | 10
Cc1cnn(Cc2ccc(CNC(=O)c3cncc(N4CC[C@]5(C4)OC(=O)Nc4ccc(Cl)c(F)c45)n3)cn2)c1 [Example 21, (S)-6-(6-Chloro-5-fluoro-2-oxo-1,2-dihydrospiro[benzo[d][1,3]oxazine-4,3′-pyrrolidin]-1′-yl)-N-((6-((4-methyl-1H-pyrazol-1-yl)methyl)pyridin-3-yl)methyl)pyrazine-2-carboxamide] | 0.0023 | 10
C[C@H]1CCN(c2ccc(CNC(=O)c3cnnc(N4CC[C@]5(C4)OC(=O)Nc4ccc(Cl)c(F)c45)c3)cn2)C1 [Example 4, (S)-6-(6-Chloro-5-fluoro-2-oxo-1,2-dihydrospiro[benzo[d][1,3]oxazine-4,3′-pyrrolidin]-1′-yl)-N-((6-((S)-3-methylpyrrolidin-1-yl)pyridin-3-yl)methyl)pyridazine-4-carboxamide] | 0.0012 | 7.44
Cc1cnn(Cc2ccc(CNC(=O)c3ccnc(N4CC[C@]5(C4)OC(=O)Nc4ccc(Cl)c(F)c45)n3)cc2)c1 [Example 24, (S)-2-(6-Chloro-5-fluoro-2-oxo-1,2-dihydrospiro[benzo[d][1,3]oxazine-4,3′-pyrrolidin]-1′-yl)-N-(4-((4-methyl-1H-pyrazol-1-yl)methyl)benzyl)pyrimidine-4-carboxamide] | 0.0136 | 10
